Source: patent US20250215030A1, “STAT MODULATORS AND USES THEREOF” (Recludix Pharma, Inc., priority 2022, published 2025)
Where two headings read alike, the source gives them in different places.

Biological target: T1, pSTAT3 (pY705-STAT3) (Homo sapiens, UniProt P40763)
T1 construct: host or cells: cryopreserved PBMC
Experiment: MSD-pSTAT-PBMC Assay (pSTAT3, IL-6 stimulated)
Format: cell-based
Procedure, shortened: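 Phospho-STAT levels captured on anti-STAT3 or anti-STAT6 plates and detected with anti-pY705 or anti-pY641 antibodies (MSD read-out). Cryopreserved human PBMCs received compound for 3 h before a 10 min pulse of IL-6 (10 ng/mL, STAT3) or IL-4 (1 ng/mL, STAT6). IC50 fitted after unstimulated-background subtraction and DMSO normalization.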

[1] = PBMC, compound 3 hrs, then 10 ng/mL IL-6 for 10 min, MSD pY705-STAT3, read-out: pSTAT3

T1 sequence (P40763 whole entry): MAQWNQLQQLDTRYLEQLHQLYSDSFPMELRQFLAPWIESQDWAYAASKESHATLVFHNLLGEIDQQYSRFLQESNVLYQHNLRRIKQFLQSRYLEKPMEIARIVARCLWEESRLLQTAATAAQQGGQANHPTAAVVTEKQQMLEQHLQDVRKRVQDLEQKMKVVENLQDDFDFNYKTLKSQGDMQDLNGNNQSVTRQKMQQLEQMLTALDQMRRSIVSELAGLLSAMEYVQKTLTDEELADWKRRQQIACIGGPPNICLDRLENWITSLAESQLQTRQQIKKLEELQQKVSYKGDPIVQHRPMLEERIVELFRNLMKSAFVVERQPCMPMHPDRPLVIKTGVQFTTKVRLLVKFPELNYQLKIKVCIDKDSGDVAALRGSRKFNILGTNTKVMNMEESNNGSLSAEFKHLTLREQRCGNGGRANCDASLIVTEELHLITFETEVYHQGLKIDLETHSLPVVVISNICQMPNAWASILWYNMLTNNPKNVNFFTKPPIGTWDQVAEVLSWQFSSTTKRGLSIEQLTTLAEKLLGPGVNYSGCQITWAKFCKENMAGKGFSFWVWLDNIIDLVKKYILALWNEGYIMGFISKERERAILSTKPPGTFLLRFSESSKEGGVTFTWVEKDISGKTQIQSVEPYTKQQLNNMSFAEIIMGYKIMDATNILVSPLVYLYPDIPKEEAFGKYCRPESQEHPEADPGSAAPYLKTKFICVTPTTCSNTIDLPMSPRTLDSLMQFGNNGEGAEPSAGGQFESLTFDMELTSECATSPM

Compound | IC50 [1] [nM] | IC50 [nM]
CCCOC(=O)[C@H](C)NP(=O)(Cc1ccc2sc(C(=O)N[C@H]3C[C@H]4C[C@H]4C[C@H]4CC[C@@H](C(=O)N[C@H]5CN(c6cccnc6)C[C@@H]5F)N4C3=O)cc2c1)Oc1ccccc1 (stereo partly drawn) [Compound 269, propyl(((2-(((3S,6S,7aR,8aS,9aR)-3-(((3S,4S)-4-fluoro-1-(pyridin-3-yl)pyrrolidin-3-yl)carbamoyl)-5-oxodecahydro-1H-cyclopropa[d]pyrrolo[1,2-a]azocin-6-yl)carbamoyl)benzo[b]thiophen-5-yl)methyl)(phenoxy)phosphoryl)-L-alaniante] | < 100 | –
Cc1ccncc1C1CN(C(=O)[C@@H]2CC[C@@H]3C[C@H]4C[C@H]4C[C@H](NC(=O)c4cc5cc(C(F)P(=O)(N[C@@H](C)C(=O)OC(C)C)Oc6ccccc6)ccc5s4)C(=O)N32)C1 (stereo partly drawn) [Compound 281, isopropyl ((fluoro(2-(((3S,6S,7aS,8aR,9aR)-3-(3-(4-methylpyridin-3-yl)azetidine-1-carbonyl)-5-oxodecahydro-1H-cyclopropa[d]pyrrolo[1,2-a]azocin-6-yl)carbamoyl)benzo[b]thiophen-5-yl)methyl)(phenoxy)phosphoryl)-L-alaninate] | – | < 100
CCCOC(=O)[C@H](CC)NP(=O)(Oc1ccccc1)C(F)c1ccc2sc(C(=O)N[C@H]3C[C@@H]4C[C@@H]4C[C@H]4CC[C@@H](C(=O)N5CC(c6cnccc6C)C5)N4C3=O)cc2c1 (stereo partly drawn) [Compound 283, propyl(2S)-2-(((fluoro(2-(((3S,6S,7aS,8aR,9aR)-3-(3-(4-methylpyridin-3-yl)azetidine-1-carbonyl)-5-oxodecahydro-1H-cyclopropa[d]pyrrolo[1,2-a]azocin-6-yl)carbamoyl)benzo[b]thiophen-5-yl)methyl)(phenoxy)phosphoryl)amino)butanoate] | – | < 100
CCCOC(=O)[C@H](COC)NP(=O)(Oc1ccccc1)C(F)c1ccc2sc(C(=O)N[C@H]3C[C@@H]4C[C@@H]4C[C@H]4CC[C@@H](C(=O)N5CC(c6cnccc6C)C5)N4C3=O)cc2c1 (stereo partly drawn) [Compound 284, propyl N-((fluoro(2-(((3S,6S,7aS,8aR,9aR)-3-(3-(4-methylpyridin-3-yl)azetidine-1-carbonyl)-5-oxodecahydro-1H-cyclopropa[d]pyrrolo[1,2-a]azocin-6-yl)carbamoyl)benzo[b]thiophen-5-yl)methyl)(phenoxy)phosphoryl)-O-methyl-L-serinate] | – | < 100
CCCOC(=O)C(C)(C)NP(=O)(Oc1ccccc1)C(F)c1ccc2sc(C(=O)N[C@H]3C[C@@H]4C[C@@H]4C[C@H]4CC[C@@H](C(=O)N5CC(c6cnccc6C)C5)N4C3=O)cc2c1 (stereo partly drawn) [Compound 285, propyl 2-(((fluoro(2-(((3S,6S,7aS,8aR,9aR)-3-(3-(4-methylpyridin-3-yl)azetidine-1-carbonyl)-5-oxodecahydro-1H-cyclopropa[d]pyrrolo[1,2-a]azocin-6-yl)carbamoyl)benzo[b]thiophen-5-yl)methyl)(phenoxy)phosphoryl)amino)-2-methylpropanoate] | < 100 | –
CCCOC(=O)[C@H](C)NP(=O)(OCC(F)(F)F)C(F)c1ccc2sc(C(=O)N[C@H]3C[C@@H]4C[C@@H]4C[C@H]4CC[C@@H](C(=O)N5CC(c6cnccc6C)C5)N4C3=O)cc2c1 (stereo partly drawn) [Compound 287, propyl ((fluoro(2-(((3S,6S,7aS,8aR,9aR)-3-(3-(4-methylpyridin-3-yl)azetidine-1-carbonyl)-5-oxodecahydro-1H-cyclopropa[d]pyrrolo[1,2-a]azocin-6-yl)carbamoyl)benzo[b]thiophen-5-yl)methyl)(2,2,2-trifluoroethoxy)phosphoryl)-L-alaninate] | < 100 | –
CC(C)(C)C(=O)SCCOP(=O)(OCCSC(=O)C(C)(C)C)C(F)c1ccc2sc(C(=O)N[C@H]3C[C@@H]4C[C@@H]4C[C@H]4CC[C@@H](C(=O)N5CC(c6cnccc6F)C5)N4C3=O)cc2c1 (stereo partly drawn) [Compound 306, S,S′-((((fluoro(2-(((3S,6S,7aS,8aR,9aR)-3-(3-(4-fluoropyridin-3-yl)azetidine-1-carbonyl)-5-oxodecahydro-1H-cyclopropa[d]pyrrolo[1,2-a]azocin-6-yl)carbamoyl)benzo[b]thiophen-5-yl)methyl)phosphoryl)bis(oxy))bis(ethane-2,1-diyl))bis(2,2-dimethylpropanethioate)] | < 100 | –
CCCOC(=O)[C@H](C)NP(=O)(Oc1ccccc1)C(F)c1ccc2sc(C(=O)N[C@H]3C[C@@H]4C[C@@H]4C[C@H]4CC[C@@H](C(=O)N5CC(c6cnccc6C)C5)N4C3=O)cc2c1 (stereo partly drawn) [Compound 307, propyl ((fluoro(2-(((3S,6S,7aS,8aR,9aR)-3-(3-(4-methylpyridin-3-yl)azetidine-1-carbonyl)-5-oxodecahydro-1H-cyclopropa[d]pyrrolo[1,2-a]azocin-6-yl)carbamoyl)benzo[b]thiophen-5-yl)methyl)(phenoxy)phosphoryl)-L-alaninate] | < 100 | –
CC(C)(C)C(=O)SCCOP(=O)(OCCSC(=O)C(C)(C)C)C(F)(F)c1ccc2sc(C(=O)N[C@H]3C[C@@H]4C[C@@H]4C[C@H]4CC[C@@H](C(=O)N5CC(c6cnccc6F)C5)N4C3=O)cc2c1 [Compound 308, S,S′-((((difluoro(2-(((3S,6S,7aS,8aR,9aR)-3-(3-(4-fluoropyridin-3-yl)azetidine-1-carbonyl)-5-oxodecahydro-1H-cyclopropa[d]pyrrolo[1,2-a]azocin-6-yl)carbamoyl)benzo[b]thiophen-5-yl)methyl)phosphoryl)bis(oxy))bis(ethane-2,1-diyl))bis(2,2-dimethylpropanethioate)] | < 100 | –
CCCOC(=O)[C@H](C)NP(=O)(Oc1ccccc1)C(F)c1ccc2sc(C(=O)N[C@H]3C[C@@H]4C[C@@H]4C[C@H]4CC[C@@H](C(=O)N5CC(c6nncn6C)C5)N4C3=O)cc2c1 (stereo partly drawn) [Compound 309, propyl ((fluoro(2-(((3S,6S,7aS,8aR,9aR)-3-(3-(4-methyl-4H-1,2,4-triazol-3-yl)azetidine-1-carbonyl)-5-oxodecahydro-1H-cyclopropa[d]pyrrolo[1,2-a]azocin-6-yl)carbamoyl)benzo[b]thiophen-5-yl)methyl)(phenoxy)phosphoryl)-L-alaninate] | > 3000 | –
CCCOC(=O)[C@H](C)NP(=O)(Oc1ccccc1)C(F)c1ccc2sc(C(=O)N[C@H]3C[C@@H]4C[C@@H]4C[C@H]4CC[C@@H](C(=O)N5CC(N6CCS(=O)(=O)CC6)C5)N4C3=O)cc2c1 (stereo partly drawn) [Compound 310, propyl(((2-(((3S,6S,7aS,8aR,9aR)-3-(3-(1,1-dioxidothiomorpholino)azetidine-1-carbonyl)-5-oxodecahydro-1H-cyclopropa[d]pyrrolo[1,2-a]azocin-6-yl)carbamoyl)benzo[b]thiophen-5-yl)fluoromethyl)(phenoxy)phosphoryl)-L-alaninate] | – | > 3000
CCCOC(=O)[C@H](C)NP(=O)(Cc1ccc2sc(C(=O)N[C@H]3C[C@@H]4C[C@@H]4C[C@H]4CC[C@@H](C(=O)N5CC(c6cnccc6C)C5)N4C3=O)cc2c1)OCC(F)(F)F (stereo partly drawn) [Compound 311, propyl(((2-(((3S,6S,7aS,8aR,9aR)-3-(3-(4-methylpyridin-3-yl)azetidine-1-carbonyl)-5-oxodecahydro-1H-cyclopropa[d]pyrrolo[1,2-a]azocin-6-yl)carbamoyl)benzo[b]thiophen-5-yl)methyl)(2,2,2-trifluoroethoxy)phosphoryl)-L-alaninate] | < 100 | –
CC(C)(C)C(=O)SCCOP(=O)(OCCSC(=O)C(C)(C)C)C(F)(F)c1ccc2sc(C(=O)N[C@H]3C[C@@H]4C[C@@H]4C[C@H]4CC[C@@H](C(=O)N5CC(c6ccccn6)C5)N4C3=O)cc2c1 [Compound 314] | < 100 | –
CCCOC(=O)[C@H](C)NP(=O)(Oc1ccccc1)C(F)c1ccc2sc(C(=O)N[C@H]3C[C@@H]4C[C@@H]4C[C@H]4CC[C@@H](C(=O)N5CC(c6ncccn6)C5)N4C3=O)cc2c1 (stereo partly drawn) [Compound 315, propyl ((fluoro(2-(((3S,6S,7aS,8aR,9aR)-5-oxo-3-(3-(pyrimidin-2-yl)azetidine-1-carbonyl)decahydro-1H-cyclopropa[d]pyrrolo[1,2-a]azocin-6-yl)carbamoyl)benzo[b]thiophen-5-yl)methyl)(phenoxy)phosphoryl)-L-alaninate] | 100 to 1000 | –
CCCOC(=O)[C@H](C)NP(=O)(Oc1ccccc1)C(F)c1ccc2sc(C(=O)N[C@H]3C[C@@H]4C[C@@H]4C[C@H]4CC[C@@H](C(=O)N5CC(c6ccon6)C5)N4C3=O)cc2c1 (stereo partly drawn) [Compound 316, propyl ((fluoro(2-(((3S,6S,7aS,8aR,9aR)-3-(3-(isoxazol-3-yl)azetidine-1-carbonyl)-5-oxodecahydro-1H-cyclopropa[d]pyrrolo[1,2-a]azocin-6-yl)carbamoyl)benzo[b]thiophen-5-yl)methyl)(phenoxy)phosphoryl)-L-alaninate] | < 100 | –
CCCOC(=O)[C@H](C)NP(=O)(Oc1ccccc1)C(F)c1ccc2sc(C(=O)N[C@H]3C[C@H]4C[C@H]4C[C@H]4CC[C@@H](C(=O)N5CC(c6cnccc6OC)C5)N4C3=O)cc2c1 (stereo partly drawn) [Compound 319, propyl ((fluoro(2-(((3S,6S,7aR,8aS,9aR)-3-(3-(4-methoxypyridin-3-yl)azetidine-1-carbonyl)-5-oxodecahydro-1H-cyclopropa[d]pyrrolo[1,2-a]azocin-6-yl)carbamoyl)benzo[b]thiophen-5-yl)methyl)(phenoxy)phosphoryl)-L-alaninate] | < 100 | –
CCCOC(=O)[C@H](C)NP(=O)(Oc1ccccc1)C(F)c1ccc2sc(C(=O)N[C@H]3C[C@H]4C[C@H]4C[C@H]4CC[C@@H](C(=O)N5CC(c6cnccc6C)C5)N4C3=O)cc2c1 (stereo partly drawn) [Compound 321, propyl ((fluoro(2-(((3S,6S,7aR,8aS,9aR)-3-(3-(4-methylpyridin-3-yl)azetidine-1-carbonyl)-5-oxodecahydro-1H-cyclopropa[d]pyrrolo[1,2-a]azocin-6-yl)carbamoyl)benzo[b]thiophen-5-yl)methyl)(phenoxy)phosphoryl)-L-alaninate] | < 100 | –
